This passage reports IC50 results from US6143715A, “Hepatitis C inhibitor peptide analogues” (priority 1998, dated 2000).

Starred links: 1 amine or outer side, 2 acyl side, 3 side chain; linkers in the order of their positions; H or OH if unused. Non-standard residues stand in square brackets, D forms with d. Residues, ends and D or L forms follow the SMILES beside them. ξ: configuration not given here. *: point of attachment. Tetrahydroisoquinolin(2-yl) = c1ccc2c(c1)CCN(*)C2; NH(1S-phenylpropyl) = CC[C@H](N*)c1ccccc1; NH(1S-phenylethyl) = C[C@H](N*)c1ccccc1; X21 = CCCN(N*)C(=O)CCc1nc(-c2ccccn2)no1; X11 = CCCN(N*)C(=O)[C@H](O)c1ccccc1; X20 = O=C(N(CC(F)(F)F)N[*:1])[*:2]; X1 = CCCC(N*)C(=O)C(F)(F)C(F)(F)F; X15 = CCCC(N[*:1])C(=O)C(=O)[*:2]; Hyp = O=C(O)[C@@H]1C[C@@H](O)CN1; NHPiperonyl = c1cc2c(cc1CN*)OCO2; azaNva = CCCN(N[*:1])C(=O)[*:2]; X18 = CCCN(N*)C(=S)NCc1ccccc1; NMe(benzyl) = CN(Cc1ccccc1)*; Suc = O=C(CCC(=O)[*:2])[*:1]; Nva = CCC[C@H](N)C(=O)O; X14 = c1ccc2c(c1)CCN2*; X16 = CCCCN(N*)C(N)=O; NHBn = c1ccc(CN*)cc1; X13 = CCCN(N*)C(N)=O; X19 = CCCN(N*)C(C)=O; ξNva = CCCC(N)C(=O)O; Bn = c1ccc(C*)cc1

T1 sequence (P26663 1027-1206, other chains not shown): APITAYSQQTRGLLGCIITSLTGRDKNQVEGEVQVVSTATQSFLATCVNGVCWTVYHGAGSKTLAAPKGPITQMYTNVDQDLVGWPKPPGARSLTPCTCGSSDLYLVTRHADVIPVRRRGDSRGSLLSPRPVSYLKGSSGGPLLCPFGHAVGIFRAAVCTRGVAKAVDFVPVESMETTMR

One experiment concerns the target T1, HCV NS3 protease type 1b/NS4A cofactor peptide (Hepatitis C virus genotype 1b, UniProt P26663).
T1 construct: recombinant HCV NS3 protease (amino acid 1027 to 1206) was cloned; made in house; host or cells: E. coli BL21(DE3)pLysS
The experiment can be described thus: biochemical. On the set-up: species or system hepatitis C virus (HCV) genotype 1b.
Conditions: not given
The text has this: a) Cloning, expression and purification of the recombinant HCV NS3 protease type lb
Serum from an HCV-infected patient was obtained through an external collaboration (Bernard Willems MD, Hopital St-Luc, Montreal, Canada and Dr. Donald Murphy, Laboratoire de Sante Publique du Quebec, Ste-Anne de Bellevue, Canada). An engineered full-length cDNA template of the HCV genome was constructed from DNA fragments obtained by reverse transcription-PCR (RT-PCR) of serum RNA and using specific primers selected on the basis of homology between other genotype lb strains. […] A DNA fragment encoding the polyprotein precursor (NS3/NS4A/NS4B/NS5A/NS5B) was generated by PCR and introduced into eucaryotic expression vectors.
The NS3 protease expression in E. coli BL21(DE3)pLysS was induced by incubation with 1 mM IPTG for 3 h at 22° C. […] The cells were resuspended in lysis buffer (3.0 mL/g) consisting of 25 mM sodium phosphate, pH 7.5, 10% glycerol (v/v), 1 mM EDTA, 0.01% NP-40 and stored at -80° C. Cells were thawed and homogenized following the addition of 5 mM DTT. Magnesium chloride and DNase were then added to the homogenate at final concentrations of 20 mM and 20 μg/mL respectively. After a 25 min incubation at 4° C., the homogenate was sonicated and centrifuged at 15000× g for 30 min at 4° C. The pH of the supernatant was then adjusted to 6.5 using a 1M sodium phosphate solution.
Briefly, the supernatant from the bacterial extract was loaded on a SP HiTrap column (Pharmacia) previously equilibrated at a flow rate of 2 mL/min in buffer A (50 mM sodium phosphate, pH 6.5, 10% glycerol, 1 mM EDTA, 5 mM DTT, 0.01% NP-40). The column was then washed with buffer A containing 0.15 M NaCl and the protease eluted by applying 10 column volumes of a linear 0.15 to 0.3 M NaCl gradient. NS3 protease-containing fractions were pooled and diluted to a final NaCl concentration of 0.1 M. The enzyme was further purified on a HiTrap Heparin column (Pharmacia) equilibrated in buffer B (25 mM sodium phosphate, pH 7.5, 10% glycerol, 5 mM DTT, 0.01% NP-40). The sample was loaded at a flow rate of 3 mL/min. The column was then washed with buffer B containing 0.15 M NaCl at a flow rate of 1.5 mL/min. Two step washes were performed in the presence of buffer B containing 0.3 or 1M NaCl. […] Finally, the NS3 protease-containing fractions were applied on a Superdex 75 HiLoad 16/60 column (Pharmacia) equilibrated in buffer B containing 0.3 M NaCl.
The enzyme was stored at -80° C. and was thawed on ice and diluted just prior to use.
Recombinant HCV NS3 Protease/NS4A Cofactor Peptide Radiometric Assay
The enzyme was stored at -80° C., thawed on ice and diluted just prior to use in the assay buffer containing the NS4A cofactor peptide.
The substrate used for the NS3 protease/[…] cofactor peptide radiometric assay, DDIVPC-SMSYTW, is cleaved between the cysteine and the serine residues by the enzyme. The sequence DDIVPC-SMSYTW corresponds to the NS5A/NS5B natural cleavage site in which the cysteine residue in […] has been substituted for a proline. […] (molar ratio enzyme: cofactor 1:100) in the absence or presence of inhibitors. The separation of substrate from products is performed by adding avidin-coated agarose beads to the assay mixture followed by filtration.
Assay buffer: 50 mM Tris HCl, pH 7.5, 30% (w/v) glycerol, 1 mg/mL BSA, 1 mM TCEP (TCEP added just prior to use from a 1 M stock solution in water)
Substrate: […], […] final concentration (from a 2 mM stock solution in DMSO stored at -20° C. to avoid oxidation).
The term IC50 denotes the concentration needed to halve the response being measured. As to `CCCC(NC(=O)[C@@H]1C[C@@H](OCc2ccccc2)CN1C(=O)[C@@H](NC(=O)[C@@H](NC(=O)[C@@H](CCC(=O)O)NC(=O)[C@H](CC(=O)O)NC(C)=O)[C@@H](C)CC)C(C)C)C(=O)C(F)(F)C(F)(F)F` (stereo partly shown) [Compound 102] (Ac-D[dE]IV[Hyp](Bn)-X1), the IC50 stood at 0.21 µM.

Compound `CCCC(NC(=O)[C@@H]1C[C@@H](OCc2ccccc2)CN1C(=O)[C@@H](NC(=O)[C@@H](NC(=O)[C@@H](CCC(=O)O)NC(=O)[C@H](CC(=O)O)NC(C)=O)[C@@H](C)CC)C(C)C)C(=O)C(=O)NCc1ccccc1` (stereo partly shown) [Compound 103] (Ac-D[dE]IV[Hyp](Bn)[X15]-NHBn) had an IC50 of 0.023 µM.

The compound `CCCC(NC(=O)[C@@H]1C[C@@H](OCc2ccccc2)CN1C(=O)[C@@H](NC(=O)[C@@H](NC(=O)[C@@H](CCC(=O)O)NC(=O)[C@H](CC(=O)O)NC(C)=O)[C@@H](C)CC)C(C)C)C(N)=O` (stereo partly shown) [Compound 105] (Ac-D[dE]IV[Hyp](Bn)[ξNva]-NH2) displayed an IC50 of 54 µM.

The compound `CCC[C@H](NC(=O)[C@@H]1C[C@@H](OCc2ccccc2)CN1C(=O)[C@@H](NC(=O)[C@@H](NC(=O)[C@@H](CCC(=O)O)NC(=O)[C@H](CC(=O)O)NC(C)=O)[C@@H](C)CC)C(C)C)C(=O)NCc1ccccc1` [Compound 107] (Ac-D[dE]IV[Hyp](Bn)[Nva]-NHBn) had an IC50 of 3 µM.

As for `CCCC(NC(=O)[C@@H]1C[C@@H](OCc2ccccc2)CN1C(=O)[C@@H](NC(=O)[C@@H](NC(=O)[C@@H](CCC(=O)O)NC(=O)[C@H](CC(=O)O)NC(C)=O)[C@@H](C)CC)C(C)C)C(=O)N1CCc2ccccc2C1` (stereo partly shown) [Compound 111] (Ac-D[dE]IV[Hyp](Bn)[ξNva]-{Tetrahydroisoquinolin(2-yl)}), the IC50 turned out to be 20 µM.

Compound `CCCC(NC(=O)[C@@H]1C[C@@H](OCc2ccccc2)CN1C(=O)[C@@H](NC(=O)[C@@H](NC(C)=O)C1CCCCC1)C(C)C)C(=O)C(=O)NCc1ccncc1` (stereo partly shown) [Compound 116] gave a 50% inhibitory concentration (IC50) of 25 µM.

In turn, `CCCN(NC(=O)[C@@H]1C[C@@H](OCc2ccccc2)CN1C(=O)[C@@H](NC(=O)[C@@H](NC(=O)[C@@H](CCC(=O)O)NC(=O)[C@H](CC(=O)O)NC(C)=O)[C@@H](C)CC)C(C)C)C(=O)NCc1ccccc1` [Compound 203] (Ac-D[dE]IV[Hyp](Bn)[azaNva]-NHBn) yielded an IC50 of 0.59 µM.

The compound `CCCN(NC(=O)[C@@H]1C[C@@H](OCc2ccccc2)CN1C(=O)[C@@H](NC(=O)[C@@H](NC(=O)[C@@H](CCC(=O)O)NC(=O)[C@H](CC(=O)O)NC(C)=O)[C@@H](C)CC)C(C)C)C(=O)NCC(=O)O` [Compound 207] (Ac-D[dE]IV[Hyp](Bn)[azaNva]G-OH) had an IC50 of 3.75 µM.

`CCCN(NC(=O)[C@@H]1C[C@@H](OCc2ccccc2)CN1C(=O)[C@@H](NC(=O)[C@@H](NC(=O)[C@@H](CCC(=O)O)NC(=O)[C@H](CC(=O)O)NC(C)=O)[C@@H](C)CC)C(C)C)C(C)=O` [Compound 208] (Ac-D[dE]IV[Hyp](Bn)-X19): the 50% inhibitory concentration (IC50) was 14.5 µM.

`CCCN(NC(=O)[C@@H]1C[C@@H](OCc2ccccc2)CN1C(=O)[C@@H](NC(=O)[C@@H](NC(=O)[C@@H](CCC(=O)O)NC(=O)[C@H](CC(=O)O)NC(C)=O)[C@@H](C)CC)C(C)C)C(N)=O` [Compound 209] (Ac-D[dE]IV[Hyp](Bn)-X13) displayed an IC50 of 20.5 µM.

`CCCCN(NC(=O)[C@@H]1C[C@@H](OCc2ccccc2)CN1C(=O)[C@@H](NC(=O)[C@@H](NC(=O)[C@@H](CCC(=O)O)NC(=O)[C@H](CC(=O)O)NC(C)=O)[C@@H](C)CC)C(C)C)C(N)=O` [Compound 211] (Ac-D[dE]IV[Hyp](Bn)-X16) displayed an IC50 of 47 µM.

On to `CCCN(NC(=O)[C@@H]1C[C@@H](OCc2ccccc2)CN1C(=O)[C@@H](NC(=O)[C@@H](NC(=O)[C@@H](CCC(=O)O)NC(=O)[C@H](CC(=O)O)NC(C)=O)[C@@H](C)CC)C(C)C)C(=O)N[C@@H](CC)c1ccccc1` [Compound 214] (Ac-D[dE]IV[Hyp](Bn)[azaNva]-{NH(1S-phenylpropyl)}), for which half-maximal inhibition (IC50) was put at 0.44 µM.

The compound `CCCN(NC(=O)[C@@H]1C[C@@H](OCc2ccccc2)CN1C(=O)[C@@H](NC(=O)[C@@H](NC(=O)[C@@H](CCC(=O)O)NC(=O)[C@H](CC(=O)O)NC(C)=O)[C@@H](C)CC)C(C)C)C(=O)[C@H](O)c1ccccc1` [Compound 216] (Ac-D[dE]IV[Hyp](Bn)-X11) yielded an IC50 of 9.6 µM.

Compound `CCCN(NC(=O)[C@@H]1CCCN1C(=O)[C@@H](NC(=O)[C@@H](NC(=O)[C@@H](CC(=O)O)NC(=O)CCC(=O)O)[C@@H](C)CC)C(C)C)C(=O)N[C@@H](C)c1ccccc1` [Compound 220] (Suc-[dD]IVP[azaNva]-{NH(1S-phenylethyl)}) gave an IC50 of 6.9 µM.

Compound `CCCN(NC(=O)[C@@H]1C[C@@H](OCc2ccccc2)CN1C(=O)[C@@H](NC(=O)[C@@H](NC(=O)[C@@H](CCC(=O)O)NC(=O)[C@H](CC(=O)O)NC(C)=O)[C@@H](C)CC)C(C)C)C(=O)N(C)Cc1ccccc1` [Compound 223] (Ac-D[dE]IV[Hyp](Bn)[azaNva]-{NMe(benzyl)}) registered an IC50 of 11 µM.

In the case of `CCCN(NC(=O)[C@@H]1C[C@@H](OCc2ccccc2)CN1C(=O)[C@@H](NC(=O)[C@@H](NC(=O)[C@@H](CCC(=O)O)NC(=O)[C@H](CC(=O)O)NC(C)=O)[C@@H](C)CC)C(C)C)C(=S)NCc1ccccc1` [Compound 224] (Ac-D[dE]IV[Hyp](Bn)-X18), the IC50 was found to be 5 µM.

On to `CCCN(NC(=O)[C@@H]1C[C@@H](OCc2ccccc2)CN1C(=O)[C@@H](NC(=O)[C@@H](NC(=O)[C@@H](CCC(=O)O)NC(=O)[C@H](CC(=O)O)NC(C)=O)[C@@H](C)CC)C(C)C)C(=O)N1CCc2ccccc21` [Compound 226] (Ac-D[dE]IV[Hyp](Bn)[azaNva]-X14), for which half-maximal inhibition (IC50) was put at 6.3 µM.

`CCCN(NC(=O)[C@@H]1C[C@@H](OCc2ccccc2)CN1C(=O)[C@@H](NC(=O)[C@@H](NC(C)=O)C1CCCCC1)C(C)C)C(=O)C(=O)O` [Compound 227]: the IC50 was determined as 39.5 µM.

In turn, `CC[C@H](C)[C@H](NC(=O)[C@@H](CCC(=O)O)NC(=O)[C@H](CC(=O)O)NC(C)=O)C(=O)N[C@H](C(=O)N1C[C@H](OCc2ccccc2)C[C@H]1C(=O)NN(CC(F)(F)F)C(=O)N[C@@H](C)c1ccccc1)C(C)C` [Compound 228] (Ac-D[dE]IV[Hyp](Bn)[X20]-{NH(1S-phenylethyl)}) yielded an IC50 of 0.63 µM.

For `CCCN(NC(=O)[C@@H]1C[C@@H](OCc2ccccc2)CN1C(=O)[C@@H](NC(=O)[C@@H](NC(=O)[C@@H](CCC(=O)O)NC(=O)[C@H](CC(=O)O)NC(C)=O)[C@@H](C)CC)C(C)C)C(=O)NCc1ccc2c(c1)OCO2` [Compound 231] (Ac-D[dE]IV[Hyp](Bn)[azaNva]-NHPiperonyl), the IC50 is 0.5 µM.

Consider `CCCN(NC(=O)[C@@H]1C[C@@H](OCc2ccccc2)CN1C(=O)[C@@H](NC(=O)[C@@H](NC(=O)[C@@H](CCC(=O)O)NC(=O)[C@H](CC(=O)O)NC(C)=O)[C@@H](C)CC)C(C)C)C(=O)CCc1nc(-c2ccccn2)no1` [Compound 232] (Ac-D[dE]IV[Hyp](Bn)-X21), for which the IC50 stood at 3.2 µM.

The same experiment, now with this note: IC50: concentration required to obtain 50% inhibition in the NS3 protease/NS4A cofactor peptide radiometric assay, enzyme:cofactor 1:100, 40 min at 23° C.
Consider `CCCC(NC(=O)[C@@H]1C[C@@H](OCc2ccccc2)CN1C(=O)[C@@H](NC(=O)[C@@H](NC(=O)[C@@H](CCC(=O)O)NC(=O)[C@H](CC(=O)O)NC(C)=O)[C@@H](C)CC)C(C)C)P(=O)(Oc1ccccc1)Oc1ccccc1` (single isomer, unassigned) [Compound 302], for which the midpoint of inhibition, the IC50, lay at 26 µM.
